Laboratory results as given in PubChem BioAssay AID1963420 (Molecular Pharmacology Branch, DTP, NCI, 2024).
Where “and” joins values, the source holds several entries; their conditions need not be identical. Identical values can stand only once.

Test system: 494315-158-R-J1-PDC complex spheroid growth, percent test/control
Test: Anticancer human tumor 494315-158-R-J1-PDC patient-derived soft tissue sarcoma cell line growth inhibition [Asc]
Settings: for viability, T/C: stronger effect = lower value; active = viability on the fitted dose curve at most 10% of control; inactive = the rest
Outline: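 Stromal components (HUVEC and hMSC) are co-assembled with the cancer cells into multicellular spheroids. Drugs are then added singly or paired, at concentrations falling by half-log increments from a clinically achievable maximum, capped at 10 microM without known Cmax.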

[1] = curve of first compound, second compound 0.1 µM
[2] = curve of first compound, second compound 0.316 µM
[3] = curve of first compound, second compound 1 µM
[4] = second compound 0.1 µM, first compound 0.00316 µM
[5] = second compound 0.1 µM, first compound 0.01 µM
[6] = second compound 0.1 µM, first compound 0.0316 µM
[7] = second compound 0.1 µM, first compound 0.1 µM
[8] = second compound 0.1 µM, first compound 0.316 µM
[9] = second compound 0.1 µM, first compound 1 µM
[10] = second compound 0.316 µM, first compound 0.00316 µM
[11] = second compound 0.316 µM, first compound 0.01 µM
[12] = second compound 0.316 µM, first compound 0.0316 µM
[13] = second compound 0.316 µM, first compound 0.1 µM
[14] = second compound 0.316 µM, first compound 0.316 µM
[15] = second compound 0.316 µM, first compound 1 µM
[16] = second compound 1 µM, first compound 0.00316 µM
[17] = second compound 1 µM, first compound 0.01 µM
[18] = second compound 1 µM, first compound 0.0316 µM
[19] = second compound 1 µM, first compound 0.1 µM
[20] = second compound 1 µM, first compound 0.316 µM
[21] = second compound 1 µM, first compound 1 µM
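Note: compound exposure lasted seven days after spheroids formed for three days.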

O=C(c1ccc(F)c(F)c1Nc1ccc(I)cc1F)N1CC(O)([C@@H]2CCCCN2)C1
inactive: viability, T/C (compound 0.00316 µM) 92.8% and 93% and 99.5% | viability, T/C (compound 0.01 µM) 111% and 90% and 99.1% | viability, T/C (compound 0.0316 µM) 108% and 106% and 90.2% | viability, T/C (compound 0.1 µM) 124% and 100% and 114% | viability, T/C (compound 0.316 µM) 98.4% and 90% and 111% | viability, T/C (compound 1 µM) 57.7% and 54.8% and 65.7%
> 1000 nM: IC50 (curve of compound)

C=CC(=O)N1CCN(c2nc(=O)n(-c3c(C)ccnc3C(C)C)c3nc(-c4c(O)cccc4F)c(F)cc23)C(C)C1 (centres undefined)
inactive: viability, T/C (compound 0.0316 µM) 105% and 116% and 107% | viability, T/C (compound 0.1 µM) 109% and 108% and 91.3% | viability, T/C (compound 0.316 µM) 103% and 101% and 104% | viability, T/C (compound 1 µM) 113% and 112% and 105% | viability, T/C (compound 3.16 µM) 112% and 113% and 101% | viability, T/C (compound 10 µM) 98.8% and 110% and 109%
> 10000 nM: IC50 (curve of compound)

Cn1ncnc1[C@H]1c2n[nH]c(=O)c3cc(F)cc(c23)N[C@@H]1c1ccc(F)cc1 + CCN1C(C(=O)NC23CCC(C(=O)O)(CC2)CC3)C(c2cccc(Cl)c2F)C2(C(=O)Nc3cc(Cl)ccc32)C12CCCCC2
inactive: viability, T/C (second compound 0.03 µM, first compound 0.000316 µM) 104% | viability, T/C (second compound 0.03 µM, first compound 0.001 µM) 101% | viability, T/C (second compound 0.03 µM, first compound 0.00316 µM) 86.8% | viability, T/C (second compound 0.03 µM, first compound 0.01 µM) 78.9% | viability, T/C (second compound 0.03 µM, first compound 0.0316 µM) 76.3% | viability, T/C (second compound 0.03 µM, first compound 0.1 µM) 57% | viability, T/C (second compound 0.0949 µM, first compound 0.000316 µM) 108% | viability, T/C (second compound 0.0949 µM, first compound 0.001 µM) 93.4% | viability, T/C (second compound 0.0949 µM, first compound 0.00316 µM) 87.1% | viability, T/C (second compound 0.0949 µM, first compound 0.01 µM) 66.3% | viability, T/C (second compound 0.0949 µM, first compound 0.0316 µM) 64.6% | viability, T/C (second compound 0.0949 µM, first compound 0.1 µM) 58.2% | viability, T/C (second compound 0.3 µM, first compound 0.000316 µM) 81.8% | viability, T/C (second compound 0.3 µM, first compound 0.001 µM) 94.3% | viability, T/C (second compound 0.3 µM, first compound 0.00316 µM) 75.5% | viability, T/C (second compound 0.3 µM, first compound 0.01 µM) 76.2% | viability, T/C (second compound 0.3 µM, first compound 0.0316 µM) 62.9% | viability, T/C (second compound 0.3 µM, first compound 0.1 µM) 76.3% | viability, T/C (second compound 0.949 µM, first compound 0.000316 µM) 95.3% | viability, T/C (second compound 0.949 µM, first compound 0.001 µM) 80.1% | viability, T/C (second compound 0.949 µM, first compound 0.00316 µM) 78.4% | viability, T/C (second compound 0.949 µM, first compound 0.01 µM) 64% | viability, T/C (second compound 0.949 µM, first compound 0.0316 µM) 73.5% | viability, T/C (second compound 0.949 µM, first compound 0.1 µM) 72.1% | viability, T/C (second compound 3 µM, first compound 0.000316 µM) 105% | viability, T/C (second compound 3 µM, first compound 0.001 µM) 92.3% | viability, T/C (second compound 3 µM, first compound 0.00316 µM) 67.9% | viability, T/C (second compound 3 µM, first compound 0.01 µM) 70.9% | viability, T/C (second compound 3 µM, first compound 0.0316 µM) 54.7% | viability, T/C (second compound 3 µM, first compound 0.1 µM) 74.2%
> 100 nM: IC50 (curve of first compound, second compound 0.03 µM) | IC50 (curve of first compound, second compound 0.0949 µM) | IC50 (curve of first compound, second compound 0.3 µM) | IC50 (curve of first compound, second compound 0.949 µM) | IC50 (curve of first compound, second compound 3 µM)

CCN1CCN(Cc2ccc(Nc3ncc(F)c(-c4cc(F)c5nc(C)n(C(C)C)c5c4)n3)nc2)CC1 + CNC(C)C(=O)NC1CN(S(=O)(=O)c2cccc(S(=O)(=O)N3CCC4CCC(C(=O)NC(c5ccccc5)c5ccccc5)N4C(=O)C(NC(=O)C(C)NC)C3)c2)CCC2CCC(C(=O)NC(c3ccccc3)c3ccccc3)N2C1=O
< 3.16 nM: IC50 [2] | IC50 [3]
> 1000 nM: IC50 (curve of first compound, second compound 0.01 µM) | IC50 (curve of first compound, second compound 0.0316 µM) | IC50 [1]
inactive: viability, T/C (second compound 0.01 µM, first compound 0.00316 µM) 77.8% | viability, T/C (second compound 0.01 µM, first compound 0.01 µM) 81.6% | viability, T/C (second compound 0.01 µM, first compound 0.0316 µM) 67% | viability, T/C (second compound 0.01 µM, first compound 0.1 µM) 64.4% | viability, T/C (second compound 0.01 µM, first compound 0.316 µM) 67.5% | viability, T/C (second compound 0.01 µM, first compound 1 µM) 63.8% | viability, T/C (second compound 0.0316 µM, first compound 0.00316 µM) 56.8% | viability, T/C (second compound 0.0316 µM, first compound 0.01 µM) 63.9% | viability, T/C (second compound 0.0316 µM, first compound 0.0316 µM) 68.7% | viability, T/C (second compound 0.0316 µM, first compound 0.1 µM) 52.2% | viability, T/C (second compound 0.0316 µM, first compound 0.316 µM) 57.2% | viability, T/C (second compound 0.0316 µM, first compound 1 µM) 53.4% | viability, T/C [4] 55.6% | viability, T/C [5] 57.4% | viability, T/C [6] 48.9% | viability, T/C [7] 58.4% | viability, T/C [8] 57.4% | viability, T/C [9] 48.9% | viability, T/C [10] 51.5% | viability, T/C [11] 46.4% | viability, T/C [12] 50.2% | viability, T/C [13] 43.4% | viability, T/C [14] 51.3% | viability, T/C [15] 52.5% | viability, T/C [16] 36.3% | viability, T/C [17] 39.7% | viability, T/C [18] 44.4% | viability, T/C [19] 41.8% | viability, T/C [20] 45.3% | viability, T/C [21] 48.5%

O=C(c1ccc(F)c(F)c1Nc1ccc(I)cc1F)N1CC(O)([C@@H]2CCCCN2)C1 + Cc1c(S(C)(=O)=O)c(-c2cc(F)cc(N3CCN(c4ccc(NS(=O)(=O)c5ccc(NC(CCN6CCC(C(=O)OCCCP(=O)(O)O)CC6)CSc6ccccc6)c(S(=O)(=O)C(F)(F)F)c5)cc4)CC3)c2)c(-c2ccc(Cl)cc2)n1C(C)C
258 nM: IC50 [3]
142 nM: IC50 (curve of first compound, second compound 3.16 µM)
245 nM: IC50 (curve of first compound, second compound 10 µM)
inactive: viability, T/C [4] 78.8% | viability, T/C [5] 78.8% | viability, T/C [6] 87.4% | viability, T/C [7] 85.3% | viability, T/C [8] 72.1% | viability, T/C [9] 24.9% | viability, T/C [10] 71.2% | viability, T/C [11] 78.9% | viability, T/C [12] 70.6% | viability, T/C [13] 72% | viability, T/C [14] 55.8% | viability, T/C [15] 15.5% | viability, T/C [16] 60.4% | viability, T/C [17] 61.2% | viability, T/C [18] 71.6% | viability, T/C [19] 72.5% | viability, T/C [20] 46.5% | viability, T/C [21] 12.2% | viability, T/C (second compound 3.16 µM, first compound 0.00316 µM) 60.5% | viability, T/C (second compound 3.16 µM, first compound 0.01 µM) 53.6% | viability, T/C (second compound 3.16 µM, first compound 0.0316 µM) 59.5% | viability, T/C (second compound 3.16 µM, first compound 0.1 µM) 53.6% | viability, T/C (second compound 3.16 µM, first compound 0.316 µM) 40.7% | viability, T/C (second compound 3.16 µM, first compound 1 µM) 18.3% | viability, T/C (second compound 10 µM, first compound 0.00316 µM) 68.2% | viability, T/C (second compound 10 µM, first compound 0.01 µM) 75.2% | viability, T/C (second compound 10 µM, first compound 0.0316 µM) 76.4% | viability, T/C (second compound 10 µM, first compound 0.1 µM) 79.9% | viability, T/C (second compound 10 µM, first compound 0.316 µM) 43% | viability, T/C (second compound 10 µM, first compound 1 µM) 13.7%
375 nM: IC50 [2]
543 nM: IC50 [1]
